Values after ≈ are worked out from the molar mass of the structure shown. Read-outs that look alike come from different tables or passages of the source.
Assays:
S. mutans UA159 [1] = assay: Biofilm inhibition, S. mutans UA159 (crystal violet, OD562); type: cell-based, Streptococcus mutans; conditions: for inhibition at 50 µM / IC50: Streptococcus mutans; for inhibition at 50 µM: UA159, 50 μM; for S. mutans biofilm inhibition: 50 μM
Method: (§1) The bacterial strains, S. mutans UA159, S. gordonii DL1, and S. sanguinis SK36 were inoculated statically at 37° C. under 5% CO2 in Todd Hewitt Broth (THB) for 24 h. The cultures were then diluted with fresh THB (1:5) and reinoculated until optical density at 470 nm (OD470) reached 1. The optical density was read using BioTek 800TS microplate reader at 470 nm for bacterial growth and 562 nm for biofilm stained with crystal violet. Data was plotted in Graphpad Prism9.
Biofilm inhibition assays. Biofilm inhibition assays were performed in polystyrene microtiter 96 well plates. Stock solutions were prepared in chemically defined medium (CDM, JRH Biosciences, Lenexa, KS) with 2% sucrose, 1% bacteria cultures and various concentrations of the small molecule inhibitors to examine their activity against biofilm formation as described^69, 70. These stocks were assayed in 96 well plates in triplicate and incubated at 37° C. and 5% CO2 for 16 h. After reading optical density for bacterial growth, the plate was gently washed with water, dried, and stained with crystal violet, and then gently rinsed again with deionized water leaving the stained biofilm at the bottoms of the wells. Biofilms was dissolved in 200 μL of 30% acetic acid and absorbance at 562 nm was used read to determine biofilm biomass. Each assay was carried out at least in triplicate. Biofilm inhibitory concentration (IC50) of the compounds was determined by serial dilutions.
(§2) All bacterial strains (S. mutans UA159, S. gordonii DL1, and S. sanguinis SK36) were inoculated statically at 37° C. under 5% CO2 environment in Todd Hewitt Broth (THB) for 24 h^[61]. The cultures were then diluted with fresh THB (1:5) and reinoculated until the optical density at 470 nm reaches 1. The optical density was read using BioTek 800 TS absorbance reader at 470 nm for bacterial growth and 562 nm for biofilm stained with crystal violet. Data was plotted in Prism 10.0.2.
Biofilm inhibition assays were performed in polystyrene microtiter 96-well plates. Stock solutions were prepared in chemically defined medium (CDM) with 1% sucrose, 1% bacteria cultures and various concentrations of the small molecule inhibitors to examine their activity against biofilm formation as described^[62, 63]. These stocks were assayed in 96 well plates in triplicate and incubated at 37° C. and 5% CO2 for 16 h. After reading optical density for bacterial growth, the plate was washed, dried, and stained with 0.1% crystal violet which was again rinsed well with deionized water leaving the stained biofilm at the bottoms of the wells. This biofilm was dissolved in 200 μL of 30% acetic acid and absorbance at 562 nm was read to determine amount of biofilm formation. Each assay was carried out at least in triplicate. Biofilm inhibitor concentration (IC50) of the compounds was determined by serial dilutions from 0 μM-50 μM (1% DMSO).

S. mutans UA159 [2] = assay: Planktonic growth, S. mutans UA159 (OD470); type: cell-based, Streptococcus mutans; conditions: for inhibition at 50 µM: Streptococcus mutans, UA159, read-out: planktonic growth inhibition of S. mutans, 50 μM
Method: as §1
(§3) S. mutans, S. gordonii, and S. sanguinis growth assays. Effects of compounds on S. mutans and commensal bacterial growth were evaluated using the growth assay as described^69. S. mutans UA159, S. gordonii DL1, S. sanguinis SK36, cultures were grown for 24 h under 5% CO2 at 37° C. These cultures were then reinoculated with fresh THB (1:5) until OD470=1 when the bacteria were ready to be used. Different concentrations of the inhibitor were assayed in chemically defined media (CDM) with 1% of the bacteria, 1% sucrose and 1% DMSO in 96 well plates. The 96 well plates were incubated under 5% CO2 at 37° C. for 16 h. Growth of the bacteria was read after 16 h at OD470. Each assay was carried out at least in triplicate.
as §2
as §3, with “Effects” for “S. mutans, S. gordonii, and S. sanguinis growth assays. Effects”, “PEHA5, PEHA6, HA5 or HA6” for “compounds”, “described^[62].” for “described^69.”, “PEHA5, PEHA6, HA5 or HA6” for “inhibitor”, “CDM” for “chemically defined media (CDM)”

[3] = Solubility in water containing 1% DMSO (UV spectroscopy); type: physicochemical; conditions: for solubility compared with IIIC5: comparison with IIIC5 (25 μg/mL); for solubility: organic solvent or mixture, water containing 1% DMSO
Method: Solubility of MA1-6 and HA2-6 were determined as reported^46 (Table 1).
General considerations. ^1H-NMR and ^13C-NMR spectra were recorded on Bruker Avance Neo 400 and Avance II 700 spectrometers using TMS or appropriate solvent signals as internal standard. The chemical shift values are given in parts per million (ppm) relative to the internal standard used and the coupling constants (J) are given in hertz (Hz). High resolution mass spectra (HRMS) were recorded using Waters AutoSpec-Ultima™ NT magnetic sector mass spectrometer with Electron Impact (EI) Ionization source. The mass analyzer is an electric-magnetic-electric (EBE) sector (a double focusing sector). Anhydrous solvents used for reactions were purchased in Sure-Seal™ bottles from Aldrich chemical company. Other chemical reagents were purchased from Aldrich or Fisher chemical companies and used as received. Reactions were monitored with thin layer chromatography (TLC), which was done on silica gel plates with fluorescent indicator (Silicycle, silica gel, UV254, 25 μm plates). The TLC spots were observed under UV light with the wavelengths 254 nm and 365 nm. The reaction mixtures were purified by column chromatography using Si gel (32-63 μm) from Dynamic Absorbent, Inc. Melting points were determined on a Mel-Temp II melting point apparatus and are uncorrected. All tested compounds have ≥95% purity as determined by HPLC. HPLC traces were obtained using Shimadzu SPD-M20A. Solubility of compounds were determined by UV-spectroscopy method using Agilent Cary 60 UV-Vis spectrophotometer. HPLC analysis of the final compounds were conducted using Kinetex 5 μm C18 100 Å, LC Column 150×4.6 mm, compound=3 mM, 20 μL injection, solvent: mobile phase buffer, Conditions: 60% MeCN/40% H2O/0.1% Formic acid (isocratic), HPLC method 0-10 min, Signals were analyzed using a 254 nm UV detector. A chromatogram of Mobile Phase Buffer (20 μL) was obtained for comparison.

[4] = water, 1% dmso; cited from earlier work
[5] = S. mutans UA159 biofilm, read-out: Biofilm IC50

## COc1cc(C=CC(=O)c2ccccc2O)cc(OC)c1OC [Compound 3f, 1-(2-Hydroxyphenyl)-3-(3′,4′,5′-trimethoxyphenyl) prop-2-en-1-one]
S. mutans UA159 [1]
  inhibition at 50 µM: 40%
S. mutans UA159 [1]; UA159, read-out: Biofilm IC50
  IC50: 181 µM
S. mutans UA159 [2]; 50 μM
  planktonic growth of S. mutans: no growth inhibition

## O=C(C=Cc1ccccc1)c1ccccc1O [Compound 3a, 1-(2-Hydroxyphenyl)-3-phenyl-2-propen-1-one]
S. mutans UA159 [1]; UA159, read-out: Biofilm IC50
  IC50: > 300 µM

## COc1ccc(C=CC(=O)c2ccccc2O)cc1 [Compound 3b, 1-(2-Hydroxyphenyl)-3-(4′-methoxyphenyl)-2-propen-1-one]
S. mutans UA159 [1]; UA159, read-out: Biofilm IC50
  IC50: > 300 µM

## O=C1C(=Cc2ccccc2)Oc2ccccc21 [MA1, 2-(Phenylmethylidene)-2,3-dihydro-1-benzofuran-3-one]
S. mutans UA159 [1]; UA159, read-out: Biofilm IC50
  IC50: 33.6 ± 0.53 µM
S. mutans UA159 [2]
  inhibition at 50 µM: 80%
[3]
  solubility compared with IIIC5: lower solubility than IIIC5
[3]; UV spectroscopy
  solubility: 8.51 ± 2 µg/mL (≈ 38.3 µM)

## COc1cc(OC)c(OC)cc1C=CC(=O)c1ccccc1O [Compound 3e, 1-(2-Hydroxyphenyl)-3-(2′,4′,5′-trimethoxyphenyl) prop-2-en-1-one]
S. mutans UA159 [1]; UA159, read-out: Biofilm IC50
  IC50: > 300 µM

## COc1ccc(/C=C2\Oc3ccccc3C2=O)cc1OC [MA3, 2-[(3′,4′-Dimethoxyphenyl)methylidene]-2,3-dihydro-1-benzofuran-3-one]
S. mutans UA159 [1]
  S. mutans biofilm inhibition: inactive
S. mutans UA159 [1]; UA159, read-out: Biofilm IC50
  IC50: 49.4 µM
S. mutans UA159 [1]; [5]
  IC50: 49.4 µM
[3]
  solubility: 36.3 µg/mL (≈ 128 µM)

## COc1cc(/C=C2\Oc3ccccc3C2=O)cc(OC)c1OC [MA6, 2-[(3′,4′,5′-Trimethoxyphenyl)methylidene]-2,3-dihydro-1-benzofuran-3-one]
S. mutans UA159 [1]; UA159, read-out: Biofilm IC50
  IC50: > 300 µM
[3]
  solubility: 44.7 µg/mL (≈ 143 µM)

## O=C1/C(=C/c2ccc(O)c(O)c2)Oc2ccccc21 [HA3, 2-[(3′,4′-Dihydroxyphenyl)methylidene]-2,3-dihydro-1-benzofuran-3-one]
S. mutans UA159 [1]
  inhibition at 50 µM: ~80%
S. mutans UA159 [1]; UA159, read-out: Biofilm IC50
  IC50: 30.7 µM
S. mutans UA159 [1]; [5]
  IC50: 30.7 µM
S. mutans UA159 [2]
  inhibition at 50 µM: 40%
[3]; UV spectroscopy
  solubility: 81.6 µg/mL (≈ 321 µM)

## COc1cc(/C=C2\Oc3ccccc3C2=O)cc(OC)c1 [MA4, 2-[(3′,5′-Dimethoxyphenyl)methylidene]-2,3-dihydro-1-benzofuran-3-one]
S. mutans UA159 [1]; UA159, read-out: Biofilm IC50
  IC50: > 300 µM
[3]
  solubility compared with IIIC5: lower solubility than IIIC5
  solubility: 19 µg/mL (≈ 67.2 µM)

## COc1cc(C=CC(=O)c2ccccc2O)cc(OC)c1 [Compound 3d, 3-(3′,5′-Dimethoxyphenyl)-1-(2-hydroxyphenyl) prop-2-en-1-one]
S. mutans UA159 [1]; UA159, read-out: Biofilm IC50
  IC50: > 300 µM

## O=C(O)c1ccccc1O [Salicylic acid]
[4]
  solubility: 1880 ± 30 µg/mL (≈ 13600 µM)

## COc1ccc(C=CC(=O)c2ccccc2O)cc1OC [Compound 3c, 3-(3′,4′-Dimethoxyphenyl)-1-(2-hydroxyphenyl) prop-2-en-1-one]
S. mutans UA159 [1]; UA159, read-out: Biofilm IC50
  IC50: > 300 µM

## O=C1/C(=C/c2cc(O)cc(O)c2)Oc2ccccc21 [HA4, 2-[(3′,5′-Dihydroxyphenyl)methylidene]-2,3-dihydro-1-benzofuran-3-one]
S. mutans UA159 [1]
  S. mutans biofilm inhibition: did not show significant biofilm inhibition
S. mutans UA159 [1]; UA159, read-out: Biofilm IC50
  IC50: 94.2 µM
S. mutans UA159 [1]; [5]
  IC50: 94.2 µM
S. mutans UA159 [2]
  inhibition at 50 µM: 30%
[3]; UV spectroscopy
  solubility: 76.5 µg/mL (≈ 301 µM)

## COc1ccc(/C=C2\Oc3ccccc3C2=O)cc1 [MA2, 2-[(4′-Methoxyphenyl)methylidene]-2,3-dihydro-1-benzofuran-3-one]
S. mutans UA159 [1]; UA159, read-out: Biofilm IC50
  IC50: 108 µM
S. mutans UA159 [1]; UA159, read-out: Biofilm IC50 (unit inferred)
  IC50: 108 µM
[3]
  solubility compared with IIIC5: lower solubility than IIIC5
  solubility: 16.2 µg/mL (≈ 64.3 µM)

## O=C1/C(=C/c2ccc(O)cc2)Oc2ccccc21 [HA2, 2-[(4′-Hydroxyphenyl)methylidene]-2,3-dihydro-1-benzofuran-3-one]
S. mutans UA159 [1]
  inhibition at 50 µM: > 95%
S. mutans UA159 [1]; UA159, read-out: Biofilm IC50
  IC50: 18.8 ± 2.36 µM
S. mutans UA159 [2]; 50 μM
  planktonic growth inhibition of S. mutans: 70%
S. mutans UA159 [2]
  inhibition at 50 µM: 60%
[3]
  solubility compared with IIIC5: lower solubility than IIIC5
  solubility: 18.9 µg/mL (≈ 79.5 µM)

## COc1cc(OC)c(OC)cc1/C=C1\Oc2ccccc2C1=O [MA5, 2-[(2′,4′,5′-Trimethoxyphenyl)methylidene]-2,3-dihydro-1-benzofuran-3-one]
S. mutans UA159 [1]
  inhibition at 50 µM: 60%
S. mutans UA159 [1]; UA159, read-out: Biofilm IC50
  IC50: 52.8 µM
S. mutans UA159 [1]; [5]
  IC50: 52.8 µM
S. mutans UA159 [2]
  inhibition at 50 µM: 30%
[3]
  solubility: 42.4 µg/mL (≈ 136 µM)

From patent US20260315431A1, “NANOMATERIAL ENCAPSULATED BIOFILM INHIBITORS FOR DENTAL CARIES TREATMENT” (THE UAB RESEARCH FOUNDATION, priority 2023, published 2026)
